From patent US8372391B2, “Biofungicidal composition for controlling phytopathogenic fungi” (priority 2009, dated 2013)

Test system: Serratia plymuthica CCGG2742
Experiment: Susceptibility of Serratia plymuthica CCGG2742 to various antibiotics
Assay type: cell-based
Design: key: sensibility (S); resistance (R)

O=C1CN(/N=C/c2ccc([N+](=O)[O-])o2)C(=O)N1 [Nitrofurantoin]
Susceptibility of Serratia plymuthica CCGG2742 to antibiotic (antibiotic 300 μg): R

CO/N=C(\C(=O)N[C@@H]1C(=O)N2C(C(=O)O)=C(CSc3nc(=O)c(=O)[nH]n3C)CS[C@H]12)c1csc(N)n1 [Ceftriaxone]
Susceptibility of Serratia plymuthica CCGG2742 to antibiotic (antibiotic 30 μg): S

CN[C@H](CC(C)C)C(=O)N[C@H]1C(=O)N[C@@H](CC(N)=O)C(=O)N[C@H]2C(=O)N[C@H]3C(=O)N[C@H](C(=O)N[C@H](C(=O)O)c4cc(O)cc(O)c4-c4cc3ccc4O)[C@H](O)c3ccc(c(Cl)c3)Oc3cc2cc(c3O[C@@H]2O[C@H](CO)[C@@H](O)[C@H](O)[C@H]2O[C@H]2C[C@](C)(N)[C@H](O)[C@H](C)O2)Oc2ccc(cc2Cl)[C@H]1O [Vancomycin]
Susceptibility of Serratia plymuthica CCGG2742 to antibiotic (antibiotic 30 μg): R

CO/N=C(\C(=O)N[C@@H]1C(=O)N2C(C(=O)O)=C(COC(N)=O)CS[C@H]12)c1ccco1 [Cefuroxime]
Susceptibility of Serratia plymuthica CCGG2742 to antibiotic (antibiotic 30 μg): R

CC1(C)S[C@@H]2[C@H](NC(=O)C(C(=O)O)c3ccccc3)C(=O)N2[C@H]1C(=O)O (some centres unmarked) [Carbenicillin]
Susceptibility of Serratia plymuthica CCGG2742 to antibiotic (antibiotic 100 μg): S

C[C@H]1[C@H](NC(=O)/C(=N\OC(C)(C)C(=O)O)c2csc(N)n2)C(=O)N1S(=O)(=O)O [Aztreonam]
Susceptibility of Serratia plymuthica CCGG2742 to antibiotic (antibiotic 30 μg): S

CO/N=C(\C(=O)N[C@@H]1C(=O)N2C(C(=O)O)=C(COC(C)=O)CS[C@H]12)c1csc(N)n1 [Cefotaxime]
Susceptibility of Serratia plymuthica CCGG2742 to antibiotic (antibiotic 30 μg): S

CC1(C)S[C@@H]2[C@H](NC(=O)[C@H](N)c3ccc(O)cc3)C(=O)N2[C@H]1C(=O)O [Amoxicillin]
Susceptibility of Serratia plymuthica CCGG2742 to antibiotic (antibiotic 25 μg): R

CCC[C@@H]1C[C@@H](C(=O)N[C@@H]([C@H]2O[C@H](SC)[C@H](O)[C@@H](O)[C@H]2O)[C@H](C)Cl)N(C)C1 [Clindamycin]
Susceptibility of Serratia plymuthica CCGG2742 to antibiotic (antibiotic 2 μg): R

CC(=O)OCC1=C(C(=O)O)N2C(=O)[C@@H](NC(=O)Cc3cccs3)[C@H]2SC1 [Cefalotin]
Susceptibility of Serratia plymuthica CCGG2742 to antibiotic (antibiotic 30 μg): R

Cc1onc(-c2ccccc2)c1C(=O)N[C@@H]1C(=O)N2[C@@H]1SC(C)(C)[C@@H]2C(=O)O [Oxacillin]
Susceptibility of Serratia plymuthica CCGG2742 to antibiotic (antibiotic 1 μg): R

Cc1nnc(SCC2=C(C(=O)O)N3C(=O)[C@@H](NC(=O)Cn4cnnn4)[C@H]3SC2)s1 [Cefazolin]
Susceptibility of Serratia plymuthica CCGG2742 to antibiotic (antibiotic 30 μg): R

Gentamicin
Susceptibility of Serratia plymuthica CCGG2742 to antibiotic (antibiotic 10 μg): S

CC(C)(O/N=C(\C(=O)N[C@@H]1C(=O)N2C(C(=O)[O-])=C(C[n+]3ccccc3)CS[C@H]12)c1csc(N)n1)C(=O)O [Ceftazidime]
Susceptibility of Serratia plymuthica CCGG2742 to antibiotic (antibiotic 30 μg): S

Penicillin
Susceptibility of Serratia plymuthica CCGG2742 to antibiotic (antibiotic 10 U): R

CC1(C)S[C@@H]2[C@H](NC(=O)[C@H](N)c3ccccc3)C(=O)N2[C@H]1C(=O)O [Ampicillin]
Susceptibility of Serratia plymuthica CCGG2742 to antibiotic (antibiotic 10 μg): R

CO[C@@H]1[C@@H](OC(N)=O)[C@@H](O)[C@H](Oc2ccc3c(O)c(NC(=O)c4ccc(O)c(CC=C(C)C)c4)c(=O)oc3c2C)OC1(C)C [Novobiocin]
Susceptibility of Serratia plymuthica CCGG2742 to antibiotic (antibiotic 5 μg): R

CN(C)[C@@H]1C(O)=C(C(N)=O)C(=O)[C@@]2(O)C(O)=C3C(=O)c4c(O)cccc4[C@@](C)(O)[C@H]3C[C@@H]12 [Tetracycline]
Susceptibility of Serratia plymuthica CCGG2742 to antibiotic (antibiotic 30 μg): R

O=C(N[C@H](CO)[C@H](O)c1ccc([N+](=O)[O-])cc1)C(Cl)Cl [Chloramphenicol]
Susceptibility of Serratia plymuthica CCGG2742 to antibiotic (antibiotic 30 μg): S

CC1=C(C(=O)O)N2C(=O)[C@@H](NC(=O)[C@H](N)c3ccc(O)cc3)[C@H]2SC1 [Cefadroxil]
Susceptibility of Serratia plymuthica CCGG2742 to antibiotic (antibiotic 30 μg): R

CCN1CCN(C(=O)N[C@@H](C(=O)N[C@@H]2C(=O)N3C(C(=O)O)=C(CSc4nnnn4C)CS[C@H]23)c2ccc(O)cc2)C(=O)C1=O [Cefoperazone]
Susceptibility of Serratia plymuthica CCGG2742 to antibiotic (antibiotic 75 μg): S

CC[C@H]1OC(=O)[C@H](C)[C@@H](O[C@H]2C[C@@](C)(OC)[C@@H](O)[C@H](C)O2)[C@H](C)[C@@H](O[C@@H]2O[C@H](C)C[C@H](N(C)C)[C@H]2O)[C@](C)(O)C[C@@H](C)C(=O)[C@H](C)[C@@H](O)[C@]1(C)O [Erythromycin]
Susceptibility of Serratia plymuthica CCGG2742 to antibiotic (antibiotic 15 μg): R

NCC[C@H](O)C(=O)N[C@@H]1C[C@H](N)[C@@H](O[C@H]2O[C@H](CN)[C@@H](O)[C@H](O)[C@H]2O)[C@H](O)[C@H]1O[C@H]1O[C@H](CO)[C@@H](O)[C@H](N)[C@H]1O [Amikacine]
Susceptibility of Serratia plymuthica CCGG2742 to antibiotic (antibiotic 30 μg): S
